Biological target: T1, PD brain-derived a-synuclein aggregates (Homo sapiens, UniProt P37840)
T1 construct: from tissue; host or cells: frozen brain tissue of PD donors, 1% sarkosyl-insoluble pellet
Test: Micro-radiobinding competition assay against a-syn reference on PD brain-derived insoluble fraction
Type: binding
Conditions: against [3H]-reference a-syn compound
Procedure: The procedure was adapted from the protocol described in Spillantini et al., 1998. Frozen tissue blocks from PD donors were thawed on ice and homogenized using a glass dounce homogenizer. The homogenate was then centrifuged at 11,000×g (12,700 RPM) in an ultracentrifuge (Beckman, XL100K) for 20 minutes at 4° C. using a pre-cooled 70.1 rotor (Beckman, 342184). Pellets were resuspended in extraction buffer [10 mM Tris-HCl pH 7.4, 10% sucrose, […], 1% protease inhibitor (Calbiochem 539131), 1 mM EGTA, 1% phosphatase inhibitor (Sigma P5726 and P0044)] and centrifuged at 15,000×g (14,800 RPM, a 70.1 Ti rotor) for 20 minutes at 4° C. […]
PD brain-derived a-synuclein aggregates and AD brain-derived Tau PHF aggregates were spotted onto microarray slides. […] Quantification of signal was performed by using the image analysis software Beamage (ai4R). Non-specific signal was determined with an excess of non-radiolabelled compound (2 μM) and specific binding was calculated by subtracting the non-specific signal from the total signal. Competition was calculated as percentage, where 0% was defined as the specific binding in the presence of vehicle and 100% as the values obtained in the presence of excess of the non-radiolabelled a-syn reference compound. Ki values were calculated in GraphPad Prism7 by applying a nonlinear regression curve fit using a one site, specific binding model. […]

How did the Ki turn out when `O=C1c2sc(-c3ccc(N4CC[C@@H](F)C4)nc3F)nc2CCN1c1cccnc1` [Compound 1, 2-[2-fluoro-6-[(3R)-3-fluoropyrrolidin-1-yl]-3-pyridyl]-5-(3-pyridyl)-6,7-dihydrothiazolo[5,4-c]pyridin-4-one] was run?
The Ki was > 500 nM.
